The results in this text go back to patent publication US9902725B2, “Heterocyclic derivatives as RORgamma modulators” (GENFIT, priority 2014, dated 2018).

Experiment [1] concerns MOG-induced EAE mice. The experiment is described as follows: MOG-induced EAE in mice, clinical score. The class given is in vivo. How it is done:
8-10 week old, male C57BL/6 mice were purchased from Janvier Lab (St Berthevin, France) and housed in a specific pathogen free (SPF) animal facility for one week before the start of the studies. Peptide antigen MOG35-55 (Myelin Oligodendrocyte Glycoprotein) ([…], SEQ ID NO:1, Polypeptide group, France) was dissolved in PBS and emulsified with an equal volume of Complete Freund's Adjuvant (CFA) containing 5 mg/mL of mycobacteria and administrated by subcutaneous injection at the dorsal flanks on day 0 at 200 μg/mouse. To ensure induction of reliable EAE, 200 ng of Bordetella pertussis toxin (Sigma) was given via intraperitoneal injection at day 0 and 2 (Cua, Sherlock et al. 2003; Zhang, Gran et al. 2003). Animals were treated with drug beginning 2 days before peptide injection. Animals were randomized into groups for treatment by weight, so that the average weight of each group was similar. The groups were segregated by cage. Compounds according to the invention were suspended in Carboxymethyl Cellulose (CMC) 1% (Sigma) and Tween80 0.1% (Sigma) by sonication and animals were dosed daily by gavage with 10 mL/kg body weight. The daily dose of Cpd. 1 was 30 mg/kg and vidofludimus (reference compound) at 60 mg/kg in protocol 1 to assess IL-17 A and IL-17F secretion from splenocytes ex vivo. In protocol 2, mice were treated with Cpd. 1 at 3 and 10 mg/Kg or T4 compound at 1 and 10 mg/kg daily by gavage to assess the clinical score. Clinical assessment of EAE was performed daily according to the following criteria: 0) no disease, 1) limp tail, 2) weak/partially paralyzed hind legs, 3) completely paralyzed hind legs, 4) complete hind and partial front leg paralysis, and 5) complete paralysis/death. For Cytokine quantifications, mice were euthanized 20 days after EAE induction. Spleen-isolated cells were collected and adjusted to 2×10^6 cells/mL. Cells were cultured in complete RPMI medium (RPMI supplemented with 10% of fetal calf serum, 1% glutamine, and 1% penicillin/streptomycin). Spleen cells were stimulated with MOG (20 μg/mL) (Polypeptide group, France). Cytokine levels were evaluated 48 h later by ELISA (R&D Systems Europe) or HTRF (CisBio, France) in culture supernatants using IL-17A and IL-17-F according to the manufacturer's protocols. The statistical significance was based on Student's t test (p<0.05, unpaired test).

In experiment [2] the target is T1, human RORγt (Homo sapiens, UniProt P51449).
T1 sequence (P51449 1-497 isoform P51449-2): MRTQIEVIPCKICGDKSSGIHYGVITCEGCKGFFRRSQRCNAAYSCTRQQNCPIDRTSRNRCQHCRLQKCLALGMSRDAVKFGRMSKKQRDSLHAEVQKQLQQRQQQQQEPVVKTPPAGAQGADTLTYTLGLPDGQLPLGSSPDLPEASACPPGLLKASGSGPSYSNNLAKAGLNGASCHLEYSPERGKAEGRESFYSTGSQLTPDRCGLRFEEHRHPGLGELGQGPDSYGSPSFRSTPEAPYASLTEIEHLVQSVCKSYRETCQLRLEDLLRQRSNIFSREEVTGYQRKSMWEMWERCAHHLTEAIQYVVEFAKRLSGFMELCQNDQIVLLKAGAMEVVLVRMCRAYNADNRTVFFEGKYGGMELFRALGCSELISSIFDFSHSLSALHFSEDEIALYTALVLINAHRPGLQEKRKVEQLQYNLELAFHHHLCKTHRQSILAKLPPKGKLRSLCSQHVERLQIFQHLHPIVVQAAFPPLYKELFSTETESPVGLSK
The experiment is described as follows: RORE luciferase/RORγt transactivation assay. The class given is cell-based. The arrangement: expressed in transfected cells. The conditions noted are these: COS-7 cells transfected with IL-17 promoter luciferase reporter and RORγt plasmid, 20 h. The source says: It is well known that RORγ binds to a conserved non-coding sequence (CNS) enhancer element in the IL-17 promoter. Accordingly, we have used in this assay a luciferase reporter gene construct that contains the human IL-17 promoter fragment with RORγ-specific CNS enhancer element and a RORγt overexpressing plasmid, to indirectly assess the effect of compounds on RORγ activity. Inhibition of RORγ activity by test compounds will result in a decrease in luciferase activity in COS-7 cells transfected with the reporter construct.
Monkey Kidney COS-7 cell line are maintained in a standard culture medium Dulbecco's modified Eagle's minimal (DMEM) medium supplemented with 10% fetal calf serum, 1% sodium pyruvate, 1% essential amino acids and 1% antibiotics at 37° C. in a humidified atmosphere of 5% CO2 and 95% air. Culture medium was changed every 2 days.
The 4.3 Kb human IL-17 promoter containing the RORγ-specific CNS enhancer element was PCR amplified from human genomic DNA and cloned into a pGL3-TKLuc2Cp reporter plasmid. To overexpress RORγt, the full-length cDNA of human RORγt (identical to published sequence NM 001001523) was cloned without any restriction into pcdna3.1DV5-His-topo to generate the RORγt overexpression plasmid “RORγt_FL_h_pcDNA3.1DV5-His-TOPO_1”.
The luciferase reporter plasmid and the RORγt overexpression plasmid were transfected into COS-7 cell line using 4 μLJetPEITM/μg of DNA. Briefly, 150 ng of DNA (ration ½ between RORE-Tk Luc2Cp and cDNA RORγt or the empty vector for the negative control) was served to transfect adherent COS-7 cells in a […] culture flask, in complete medium (see cos-7 cell line culture). Cells were incubated for 24 hours in a humidified atmosphere of 5% CO2 and 95% air
Cells were then detached (using trypsin) and washed by centrifugation at 300 g for 10 minutes. Cell pellet was resuspended in serum free/phenol red free DMEM and seeded in 384 well plates at a density of 10000 cells/well and then incubated for 4 h at 37° C.
Compounds were dissolved in 100% DMSO to obtain 10 mM stock solutions. For each compound, test concentrations were diluted in serum free/phenol red free DMEM using the Genesis Freedom 200™ (TECAN) and added to the cells to obtain a 0.3% DMSO final concentration (in a final volume of 40 μL per well). T091317 was used as reference compound. Cells were incubated in presence of compounds for an additional 20 h at 37° C. in a humidified atmosphere of 5% CO2 and 95% air
The luciferase activity was then measured with 40 μL/well steady-Glo Luciferase assay system (Promega, Madison, Wis.) and after incubation at room temperature for 30 minutes. The luminescence was estimated using the Ultra384 reader (TECAN). Data were collected and analyzed using GraphPad Prism software (GraphPad Software V5.02, San Diego Calif. USA). IC50 in μM and Emax in % were reported for each compound.
For orientation: In a reporter assay the amount or activity of a reporter protein is the signal.

As usually defined, the IC50 is the concentration at which inhibition is half-maximal. A high value points to weaker potency in that assay. As for `O=C(O)CCc1c[nH]c2ccc(CC(=O)NC(c3ccccc3)c3ccccc3N3CCCCC3)cc12` (stereo not drawn) [Cpd. 1, 3-{5-[({phenyl[2-(piperidin-1-yl)phenyl]methyl}carbamoyl)methyl]-1H-indol-3-yl}propanoic acid], the “onset of EAE” value in experiment [1] (administered p/os (orally) for 20 days) is given as “able to delay the onset of EAE”. For the same molecule, the EAE clinical score entry in experiment [1] (daily by gavage, Cpd. 1 at 3 and 10 mg/Kg, T4 compound at 1 and 10 mg/kg) is recorded as “improvement was apparent”. Also, the IC50 in experiment [2] was < 1000 nM.
With `CC(C)CC(NC(=O)Cc1ccc2[nH]cc(CCC(=O)O)c2c1)c1ccccc1N1CCCCC1` (stereo not drawn) [Cpd. 29, 3-{5-[({3-methyl-1-[2-(piperidin-1-yl)phenyl]butyl}carbamoyl)methyl]-1H-indol-3-yl}propanoic acid], the IC50 in experiment [2] was < 1000 nM.
Still for that read-out and setting: next, `Cc1ccc(C(NC(=O)Cc2ccc3[nH]cc(CCC(=O)O)c3c2)c2ccccc2)c(N2CCCC2)c1` (stereo not drawn) [Cpd. 5, 3-{5-[({[4-methyl-2-(pyrrolidin-1-yl)phenyl](phenyl)methyl}carbamoyl)methyl]-1H-indol-3-yl}propanoic acid]: < 1000 nM; `O=C(O)CCc1c[nH]c2ccc(CC(=O)NC(c3cccc(F)c3)c3ccccc3N3CCCCC3)cc12` (stereo not drawn) [Cpd. 3, 3-[5-({[(3-fluorophenyl)[2-(piperidin-1-yl)phenyl]methyl]carbamoyl}methyl)-1H-indol-3-yl]propanoic acid]: < 1000 nM.
